Measurements as given in article PMC11219871, “Epigenetic-based differentiation therapy for Acute Myeloid Leukemia” (Nature Communications, 2024).
pIC50: −log10 of the molar value. Where “and” joins values, the source holds several entries; their conditions need not be identical. Identical values can stand only once. Like-named read-outs stand apart in the source and are kept apart here.

How the values were obtained:
HL-60 = test: Cell proliferation assay: GI50; type: cell-based, human
Outline: (§1)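 Suspension cells at 1 × 10^6 cells/mL were treated in triplicate, then incubated 1–3 h with MTS reagent (CellTiter 96 AQueous One) for colorimetric viable-cell read-out. After medium-only background subtraction, absorbance was expressed as % of untreated cells, and GI50 was fitted by non-linear regression.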

ML-2 = test: Cell proliferation assay: GI50; type: cell-based, human
Outline: as §1

MOLM-13 = test: Cell proliferation assay: GI50; type: cell-based, human
Outline: as §1

MV4-11 = test: Cell proliferation assay: GI50; type: cell-based, human
Outline: as §1

DNMT1 = DNMT1 (Homo sapiens, UniProt P26358); test: Epigenetic panel (BPS Bioscience); DNMT1 TR-FRET IC50; type: biochemical
Method: DNMT1 and G9a IC50 values were measured using time-resolved fluorescence energy transfer assays, as described previously[18],[25],[26].
Binding experiments were performed in duplicate at a concentration of 10 μM.

HEL = test: Differentiation assay, CD11b / annexin-V flow cytometry; type: cell-based; conditions: HEL cell line; replicates 1-3 (Figure 2A)
Method: (§2) Next, the cells were washed twice with phosphate-buffered saline (PBS) and resuspended in 1X Binding Buffer at a concentration of 1 × 10^6 cells/mL. An 8-µL aliquot of APC-CD11b (BD Pharmingen, Franklin Lakes, NJ, USA) and 1 µL of FITC annexin-V (AV) (BD Pharmingen, Franklin Lakes, NJ, USA) antibodies were added and incubated for 15 min at room temperature in the dark. Finally, after the addition of 400 µL of 1X Binding Buffer to each tube, samples were collected on a BD FACSCanto flow cytometer (Becton Dickinson, San Jose, CA, USA) and analyzed using FlowJo software.

NB-4 = test: as above; type: cell-based; conditions: for CD11b (%): NB4 cell line, replicates 1-3 (Figure 2A)
Method: as §2

OCI-AML3 = test: as above; type: cell-based; conditions: OCI-AML-3 cell line; replicates 1-3 (Figure 2A)
Method: as §2

[1] = tested on: H3Ac and H3K27me3 levels in HL-60, ML-2, MV4-11 and MOLM-13 cell lines; test: Western blot of histone marks; type: cell-based, human; conditions: HL-60, 270 nM CM-444 or 300 nM CM-1758, 48 h
Method: Histone extraction was performed with a Histone extraction Kit (Abcam, Cambridge, UK) following the manufacturer’s instructions. The histone concentration in the extract was measured using the dye-binding assay of Bradford. A 10 µg amount of histone was separated on 15% sodium dodecyl sulfate-polyacrylamide gel electrophoresis and transferred to a nitrocellulose membrane. The membrane, after being blocked with Tropix I-block blocking reagent (Cat No AI300, Tropix) in PBS with 0.1% Tween 20 and 0.02 NaN3 was incubated with the primary antibody against Acetyl H3 (rabbit polyclonal antibody, Cat No 06-599, Millipore) diluted 1:50,000 o/n at 4 °C or against H3K27 me3 (mouse monoclonal antibody to histone H3 trimethyl K27, Cat No ab6002, Abcam) diluted 1:2000 in bovine serum albumin o/n at 4 °C and then with alkaline phosphatase-conjugated secondary antibodies. […] Total H3 was used as a loading control (diluted 1:50,000 o/n at 4 °C or for 1 h at room temperature) (Anti-Histone H3, CT, pan, rabbit polyclonal, Cat No 07-690, Millipore). Images have been cropped for presentation.

[2] = Cryopreserved hepatocyte stability; type: in vitro ADME; conditions: read-out: Liver Hepatocytes Estimation T1/2
Method: This study was conducted at Wuxi (http://www.wuxi.com/). […] Stock solutions of test compound (10 mM; 100% DMSO) and positive controls (7-ethoxycoumarin and 7-hydroxycoumarin; 30 mM; 100% DMSO) were diluted to 1 mM and 3 mM with DMSO and then diluted to 100 μM and 300 μM with acetonitrile (dosing solutions). Cryopreserved cells (from Human Donors, Bioreclamation IVT, Cat No. X008001 and from male C57 Mice, Bioreclamation IVT, Cat No. S00463) were thawed, isolated and suspended in Williams’ Medium E, then diluted with pre-warmed Williams’ Medium E to 0.5 × 10^6 cells/mL. Cell viability was tested by trypan blue exclusion after thawing. A volume of 2 μL of dosing solution and 198 μL of pre-warmed cell suspensions were added to a 96-well plate and incubated at 37 °C (5% CO2) with constant shaking at 600 rpm. Following different incubation times (0, 15, 30, 60 and 90 min), 20 μL of each sample was transferred to a well containing 80 μL of ice-cold stop solution (acetonitrile containing 200 ng/mL tolbutamide and 200 ng/mL labetalol as internal standards). Plates were vortexed at 27 g for 10 min and then centrifuged at 3220 × g for 20 min at 4 °C. An aliquot of supernatant (75 μL) was transferred from each well and mixed with 75 μL of ultra-pure water before submitting to LC-MS/MS analysis. Concentrations of test and control compounds were quantified by LC-MS/MS using a peak area ratio of analyte/internal standard, and the percent loss of the parent compound was calculated at each time point to determine the half-life (t1/2, min). Experiments were performed in duplicate.

[3] = HL-60, replicates 1-3, read-out: GI50
[4] = Homo sapiens, HL-60, 48 h, 48 h, read-out: HL-60 GI50
[5] = Homo sapiens, HL-60, HL-60, replicates 1-3, read-out: GI50
[6] = Homo sapiens, ML-2, ML-2, replicates 1-3
[7] = Homo sapiens, MOLM-13, MOLM-13, replicates 1-3
[8] = cryopreserved hepatocytes, Human
[9] = male, C57, cryopreserved hepatocytes, Mouse
[10] = Homo sapiens, HL-60, 48 h, read-out: GI50
[11] = Homo sapiens, MV4-11, MV4-11, replicates 1-3

Chain of DNMT1 (P26358 whole entry): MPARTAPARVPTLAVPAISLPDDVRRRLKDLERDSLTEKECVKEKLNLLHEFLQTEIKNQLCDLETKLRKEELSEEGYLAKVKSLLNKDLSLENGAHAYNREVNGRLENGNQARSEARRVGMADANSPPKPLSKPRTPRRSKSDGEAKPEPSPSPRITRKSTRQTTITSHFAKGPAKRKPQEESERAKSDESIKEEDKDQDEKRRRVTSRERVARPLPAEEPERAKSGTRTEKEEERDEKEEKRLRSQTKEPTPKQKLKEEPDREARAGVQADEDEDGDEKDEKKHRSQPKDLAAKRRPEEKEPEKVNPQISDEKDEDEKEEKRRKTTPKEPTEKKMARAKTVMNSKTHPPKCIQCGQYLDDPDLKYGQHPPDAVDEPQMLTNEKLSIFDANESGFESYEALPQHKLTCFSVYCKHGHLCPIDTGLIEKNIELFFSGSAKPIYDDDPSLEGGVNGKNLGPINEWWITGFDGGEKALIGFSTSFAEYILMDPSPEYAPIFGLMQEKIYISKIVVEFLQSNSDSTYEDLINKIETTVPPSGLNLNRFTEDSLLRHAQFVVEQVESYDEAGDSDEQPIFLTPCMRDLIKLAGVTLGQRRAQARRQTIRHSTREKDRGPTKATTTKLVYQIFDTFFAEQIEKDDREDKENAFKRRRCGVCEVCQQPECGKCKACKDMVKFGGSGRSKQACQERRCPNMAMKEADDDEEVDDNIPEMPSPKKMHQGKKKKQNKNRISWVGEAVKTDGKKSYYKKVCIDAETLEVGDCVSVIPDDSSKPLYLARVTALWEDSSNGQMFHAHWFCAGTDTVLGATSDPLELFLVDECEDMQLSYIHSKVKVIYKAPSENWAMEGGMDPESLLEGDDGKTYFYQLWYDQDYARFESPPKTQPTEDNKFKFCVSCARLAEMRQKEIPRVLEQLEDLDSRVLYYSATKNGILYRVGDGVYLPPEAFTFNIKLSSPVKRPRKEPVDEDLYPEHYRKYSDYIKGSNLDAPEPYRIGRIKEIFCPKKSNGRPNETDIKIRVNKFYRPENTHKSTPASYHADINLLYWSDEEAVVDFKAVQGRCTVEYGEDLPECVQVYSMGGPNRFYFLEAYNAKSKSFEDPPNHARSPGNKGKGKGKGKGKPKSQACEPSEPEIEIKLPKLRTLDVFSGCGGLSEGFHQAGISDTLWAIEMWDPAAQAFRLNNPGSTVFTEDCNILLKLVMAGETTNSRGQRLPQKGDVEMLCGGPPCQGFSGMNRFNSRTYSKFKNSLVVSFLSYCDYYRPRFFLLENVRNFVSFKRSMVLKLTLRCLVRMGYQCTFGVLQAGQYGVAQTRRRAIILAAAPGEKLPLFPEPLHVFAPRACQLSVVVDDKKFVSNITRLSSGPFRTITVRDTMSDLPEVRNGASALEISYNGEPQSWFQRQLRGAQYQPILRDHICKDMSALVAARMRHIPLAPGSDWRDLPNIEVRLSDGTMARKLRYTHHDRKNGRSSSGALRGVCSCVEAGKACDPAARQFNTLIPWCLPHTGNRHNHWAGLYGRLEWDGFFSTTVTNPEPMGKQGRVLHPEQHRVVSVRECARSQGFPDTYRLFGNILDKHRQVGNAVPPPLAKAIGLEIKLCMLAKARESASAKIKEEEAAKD

Cc1[nH]c2ccccc2c1CCNCc1ccc(/C=C/C(=O)NO)cc1 [Panobinostat, reference compound]
GI50 (HL-60; HL-60, replicates 1-3, nM for Panobistat and Quisinostat, read-out: GI50): 15.6 nM and 19.3 nM | GI50 (HL-60; Homo sapiens, HL-60, HL-60, replicates 1-3, nM for Panobistat and Quisinostat, read-out: GI50): 19.1 nM | GI50 (HL-60; Homo sapiens, HL-60, HL-60, read-out: GI50): 18 nM | GI50 (ML-2; Homo sapiens, ML-2, ML-2): 51.6 nM | GI50 (ML-2; Homo sapiens, ML-2, ML-2, replicates 1-3, nM for Panobistat and Quisinostat): 46.8 nM | GI50 (ML-2; ML-2, replicates 1-3, nM for Panobistat and Quisinostat): 65.3 nM and 42.7 nM | GI50 (MOLM-13; Homo sapiens, MOLM-13, MOLM-13): 32 nM | GI50 (MOLM-13; Homo sapiens, MOLM-13, MOLM-13, replicates 1-3, nM for Panobistat and Quisinostat): 23.2 nM | GI50 (MOLM-13; MOLM-13, replicates 1-3, nM for Panobistat and Quisinostat): 41.5 nM and 31.3 nM | GI50 (MV4-11; Homo sapiens, MV4-11, MV4-11): 13 nM | GI50 (MV4-11; Homo sapiens, MV4-11, MV4-11, replicates 1-3, nM for Panobistat and Quisinostat): 14.5 nM | GI50 (MV4-11; MV4-11, replicates 1-3, nM for Panobistat and Quisinostat): 13.3 nM and 11.2 nM

COc1cc2nc(-c3cc(C)oc3C)cc(NCC3CCN(c4ncc(C(=O)NO)cn4)CC3)c2cc1OC [CM-1758, 2-[4-[[[2-(2,5-dimethyl-3-furyl)-6,7-dimethoxy-4-quinolyl]amino]methyl] -1-piperidyl]pyrimidine-5-carbohydroxamic acid]
inhibition at 10 µM (DNMT1): 66% | pIC50 (DNMT1; read-out: DNMT1 IC50): 4.65 | GI50 (HL-60; [3]): 1020 nM and 1180 nM | GI50 (HL-60; [4]): 1190 nM | GI50 (HL-60; [5]): 1360 nM | GI50 (ML-2; Homo sapiens, ML-2, 48 h): 844 nM | GI50 (ML-2; [6]): 869 nM | GI50 (ML-2; ML-2, replicates 1-3): 812 nM and 849 nM | GI50 (MOLM-13; Homo sapiens, MOLM-13, 48 h): 558 nM | GI50 (MOLM-13; [7]): 412 nM | GI50 (MOLM-13; MOLM-13, replicates 1-3): 685 nM and 576 nM | GI50 (MV4-11; Homo sapiens, MV4-11, 48 h): 292 nM | GI50 (MV4-11; MV4-11, replicates 1-3): 498 nM and 125 nM and 252 nM | CD11b (%) (HEL): 14.82% and 10.2% and 20.4% | CD11b (%) (NB-4): 41.82% and 48.2% and 36.4% | CD11b (%) (OCI-AML3): 51.4% and 49.5% and 45.2% | H3Ac level (western blot) [1]: significant increase in H3Ac | H3K27me3 level (western blot) [1]: no changes in H3K27me3 | half-life at 1 µM [2, 8]: 92.1 min | half-life at 1 µM [2, 9]: 19.5 min

O=C(CCCCCCC(=O)Nc1ccccc1)NO [Vorinostat, reference compound]
GI50 (HL-60; HL-60, replicates 1-3, µM for the other inhibitors, read-out: GI50): 4900 nM and 5600 nM | GI50 (HL-60; [10]): 5200 nM | GI50 (HL-60; Homo sapiens, HL-60, HL-60, replicates 1-3, µM for the other inhibitors, read-out: GI50): 5100 nM | GI50 (ML-2; Homo sapiens, ML-2, 48 h): 4500 nM | GI50 (ML-2; Homo sapiens, ML-2, ML-2, replicates 1-3, µM for the other inhibitors): 4300 nM | GI50 (ML-2; ML-2, replicates 1-3, µM for the other inhibitors): 4200 nM and 5000 nM | GI50 (MOLM-13; Homo sapiens, MOLM-13, 48 h): 3200 nM | GI50 (MOLM-13; Homo sapiens, MOLM-13, MOLM-13, replicates 1-3, µM for the other inhibitors): 3100 nM | GI50 (MOLM-13; MOLM-13, replicates 1-3, µM for the other inhibitors): 3000 nM and 3600 nM | GI50 (MV4-11; Homo sapiens, MV4-11, 48 h): 2500 nM | GI50 (MV4-11; Homo sapiens, MV4-11, MV4-11, replicates 1-3, µM for the other inhibitors): 2700 nM | GI50 (MV4-11; MV4-11, replicates 1-3, µM for the other inhibitors): 2900 nM and 2000 nM

COc1cc2nc(-c3ccc(C)o3)cc(NCC3CCN(c4ncc(C(=O)NO)cn4)CC3)c2cc1OC [CM-444, 2-[4-[[[6,7-dimethoxy-2-(5-methyl-2-furyl)-4-quinolyl]amino]methyl]-1-piperidyl]pyrimidine-5-carbohydroxamic acid]
inhibition at 10 µM (DNMT1): 96% | pIC50 (DNMT1; as printed in Fig. 1B, read-out: IC50): 5.66 | pIC50 (DNMT1; read-out: DNMT1 IC50): 5.67 | GI50 (HL-60; [3]): 987 nM and 1020 nM | GI50 (HL-60; [4]): 1090 nM | GI50 (HL-60; [5]): 1260 nM | GI50 (ML-2; [6]): 988 nM | GI50 (ML-2; ML-2, replicates 1-3): 1150 nM and 956 nM | GI50 (MOLM-13; [7]): 1370 nM | GI50 (MOLM-13; MOLM-13, replicates 1-3): 1120 nM and 883 nM | GI50 (MV4-11; Homo sapiens, MV4-11, 48 h): 621 nM | GI50 (MV4-11; [11]): 458 nM | GI50 (MV4-11; MV4-11, replicates 1-3): 765 nM and 641 nM | CD11b (%) (HEL): 12.7% and 10.5% and 8.2% | CD11b (%) (NB-4): 46.5% and 38.3% and 33.9% | CD11b (%) (OCI-AML3): 36.4% and 23.4% and 30.8% | H3Ac level (western blot) [1]: significant increase in H3Ac | H3K27me3 level (western blot) [1]: no changes in H3K27me3 | half-life at 1 µM [2, 8]: 71.1 min | half-life at 1 µM [2, 9]: 22.8 min

CC1=C(/C=C/C(C)=C/C=C/C(C)=C/C(=O)O)C(C)(C)CCC1 [ATRA, all-trans retinoic acid, reference compound]
GI50 (HL-60; [3]): > 10000 nM | GI50 (HL-60; [10]): > 10000 nM | GI50 (HL-60; [5]): > 10000 nM | GI50 (ML-2; Homo sapiens, ML-2, 48 h): > 10000 nM | GI50 (ML-2; [6]): > 10000 nM | GI50 (ML-2; ML-2, replicates 1-3): > 10000 nM | GI50 (MOLM-13; Homo sapiens, MOLM-13, 48 h): > 10000 nM | GI50 (MOLM-13; [7]): > 10000 nM | GI50 (MOLM-13; MOLM-13, replicates 1-3): > 10000 nM | GI50 (MV4-11; Homo sapiens, MV4-11, 48 h): > 10000 nM | GI50 (MV4-11; [11]): > 10000 nM | GI50 (MV4-11; MV4-11, replicates 1-3): > 10000 nM | CD11b (%) (HEL): 1.5% and 0.9% and 3.54% | CD11b (%) (NB-4): 89.2% and 76.4% and 74.85% | differentiation (CD11b) (NB-4; NB-4, daily 25% GI50, 48 h): induced differentiation | CD11b (%) (OCI-AML3): 19.3% and 12.4% and 11.8%
